The series in a line: recombinant UMI read abundance after kanamycin selection (control-corrected) (log10(CPM+1)); higher = more efficient recombination; extreme values may be limits of the assay; sequences stand for … in AGTGCAGAGAAAATCGGCCAGTTTTCTCTGCCTGCAGTCCGCATGCCGTGGGACCCCTTGGGTTCTAACCTGTTGCCTAGATTTATGCAGCGGACTGCCTTTCTCCCAAAGTGATAAACCGG…AGGTTGGTTTCACT; site = the 11-nt donor. The method, boiled down: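 After plating on IPTG (0.07 mM) plus kanamycin, or unselected, in two replicates, recombinant UMIs were PCR-amplified across the donor–target junction and sequenced. The cells were Escherichia coli co-electroporated with a UMI-tagged donor and donor-binding-loop pair library and a target plasmid with a fixed target and T7-inducible IS621 bridge recombinase. Values are log10(CPM+1), with CPM averaged over replicates and scaled by control-derived factors.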
With “GCAGATTCATGGACCGGTTTTCCCGGTAATCCGTATTTGTT (site GGAGATTCTAA)”, the “recombinant UMI read abundance (log10)” value is 0. In the case of “GCAGATTCATGGACCGGTTTTCCCGGTAATCCGTATTTGTT (site GTAGATTCTAA)” it was 0.308; in that of “GCAGGCCCATGGACCGGTTTTCCCGGTAATCCGTATTTGCT (site GCAGGCCCTAG)”, 0.921.

As for “GCAGGCGCATGGACCGGTTTTCCCGGTAATCCGTATTTGGT (site GCAGGCGCTAC)”, the “recombinant UMI read abundance (log10)” value worked out at 0.864. Regarding “GCAGGTGCATGGACCGGTTTTCCCGGTAATCCGTATTTGAT (site ACAGGTGCTAT)”, the “recombinant UMI read abundance (log10)” value was 2.52. As for “GCAGGTGCATGGACCGGTTTTCCCGGTAATCCGTATTTGAT (site CCAGGTGCTAT)”, the figure is 1.91; as for “GCAGGTGCATGGACCGGTTTTCCCGGTAATCCGTATTTGAT (site GCAGGTGCTAT)”, 2.1.

For the sequence “GCAGGTGCATGGACCGGTTTTCCCGGTAATCCGTATTTGAT (site TCAGGTGCTAT)”, the “recombinant UMI read abundance (log10)” value turned out to be 1.52. Turning to “GCAGTATCATGGACCGGTTTTCCCGGTAATCCGTATTTGCA (site ACAGTATCTTG)”, the “recombinant UMI read abundance (log10)” value was 2.95. As for “GCAGTATCATGGACCGGTTTTCCCGGTAATCCGTATTTGCA (site CCAGTATCTTG)”, the “recombinant UMI read abundance (log10)” value was determined as 2.09. As for “GCAGTATCATGGACCGGTTTTCCCGGTAATCCGTATTTGCA (site GCAGTATCTTG)”, the figure is 2.68.

As for “GCAGTATCATGGACCGGTTTTCCCGGTAATCCGTATTTGCA (site TCAGTATCTTG)”, the “recombinant UMI read abundance (log10)” value is 1.87. In the case of “GCAGTATCATGGACCGGTTTTCCCGGTAATCCGTATTTGGA (site ACAGTATCTTG)”, the “recombinant UMI read abundance (log10)” value turned out to be 0.785.

On to “GCAGTATCATGGACCGGTTTTCCCGGTAATCCGTATTTGGA (site GCAGTATCTTC)”, for which the “recombinant UMI read abundance (log10)” value stood at 2.1. As for “GCATCGACATGGACCGGTTTTCCCGGTAATCCGTATTTGCA (site GCATCGACTTG)”, the “recombinant UMI read abundance (log10)” value worked out at 2.56. As for “GCATCTACATGGACCGGTTTTCCCGGTAATCCGTATTTGTG (site ACATCTACTCA)”, the figure is 0.6; as for “GCATCTACATGGACCGGTTTTCCCGGTAATCCGTATTTGTG (site CCATCTACTCA)”, 0.104; as for “GCATCTACATGGACCGGTTTTCCCGGTAATCCGTATTTGTG (site GCATCTACTCA)”, 0.968. On to “GCATCTACATGGACCGGTTTTCCCGGTAATCCGTATTTGTG (site TCATCTACTCA)”, for which the “recombinant UMI read abundance (log10)” value worked out at 1.87. In the case of “GCATGCACATGGACCGGTTTTCCCGGTAATCCGTATTTGTA (site GAATGCACTTA)” it was 0.245. In the case of “GCATGCACATGGACCGGTTTTCCCGGTAATCCGTATTTGTA (site GCATGCACTTA)”, the “recombinant UMI read abundance (log10)” value stood at 2.41. For “GCATGCACATGGACCGGTTTTCCCGGTAATCCGTATTTGTA (site GGATGCACTTA)”, the “recombinant UMI read abundance (log10)” value worked out at 0.364. As for “GCATGCACATGGACCGGTTTTCCCGGTAATCCGTATTTGTA (site GTATGCACTTA)”, the figure is 1.01. In the case of “GCATGCGCATGGACCGGTTTTCCCGGTAATCCGTATTTGTT (site GCATGCGCTAA)” it was 1.82; in that of “GCATTGTCATGGACCGGTTTTCCCGGTAATCCGTATTTGCA (site GCATTGTCTTG)”, 2.76. In the case of “GCCAAAACATGGACCGGTTTTCCCGGTAATCCGTATTTGCT (site GCAAAAACTAG)” it was 1.08; in that of “GCCAAAACATGGACCGGTTTTCCCGGTAATCCGTATTTGCT (site GCCAAAACTAG)”, 1. Consider “GCCAAAACATGGACCGGTTTTCCCGGTAATCCGTATTTGCT (site GCGAAAACTAG)”, for which the “recombinant UMI read abundance (log10)” value stood at 0. As to “GCCAAAACATGGACCGGTTTTCCCGGTAATCCGTATTTGCT (site GCTAAAACTAG)”, the “recombinant UMI read abundance (log10)” value was determined as 0. As for “GCCAAACCATGGACCGGTTTTCCCGGTAATCCGTATTTGGT (site GACAAACCTAC)”, the figure is 0; as for “GCCAAACCATGGACCGGTTTTCCCGGTAATCCGTATTTGGT (site GCCAAACCTAC)”, 0; as for “GCCAAACCATGGACCGGTTTTCCCGGTAATCCGTATTTGGT (site GGCAAACCTAC)”, 0.0048.

As for “GCCAAACCATGGACCGGTTTTCCCGGTAATCCGTATTTGGT (site GTCAAACCTAC)”, the “recombinant UMI read abundance (log10)” value amounted to 0.

On to “GCCAACACATGGACCGGTTTTCCCGGTAATCCGTATTTGAT (site GCCAACACTAT)”, for which the “recombinant UMI read abundance (log10)” value amounted to 1.9. As for “GCCAAGCCATGGACCGGTTTTCCCGGTAATCCGTATTTGGG (site GCAAAGCCTCC)”, the figure is 0.00342. In the case of “GCCAAGCCATGGACCGGTTTTCCCGGTAATCCGTATTTGGG (site GCCAAGCCTCC)” it was 0.0135; in that of “GCCAAGCCATGGACCGGTTTTCCCGGTAATCCGTATTTGGG (site GCGAAGCCTCC)”, 0; in that of “GCCAAGCCATGGACCGGTTTTCCCGGTAATCCGTATTTGGG (site GCTAAGCCTCC)”, 0. In the case of “GCCAATCCATGGACCGGTTTTCCCGGTAATCCGTATTTGAA (site GACAATCCTTT)” it was 0.01. As for “GCCAATCCATGGACCGGTTTTCCCGGTAATCCGTATTTGAA (site GCCAATCCTTT)”, the “recombinant UMI read abundance (log10)” value turned out to be 0.53. In the case of “GCCAATCCATGGACCGGTTTTCCCGGTAATCCGTATTTGAA (site GGCAATCCTTT)”, the “recombinant UMI read abundance (log10)” value turned out to be 0.

On to “GCCAATCCATGGACCGGTTTTCCCGGTAATCCGTATTTGAA (site GTCAATCCTTT)”, for which the “recombinant UMI read abundance (log10)” value was 0.00267. “GCCACAGCATGGACCGGTTTTCCCGGTAATCCGTATTTGTT (site GCCACAGCTAA)”: the “recombinant UMI read abundance (log10)” value amounted to 1.48. In the case of “GCCACCCCATGGACCGGTTTTCCCGGTAATCCGTATTTGTA (site GCCACACCTTA)” it was 0.0331; in that of “GCCACCCCATGGACCGGTTTTCCCGGTAATCCGTATTTGTA (site GCCACCCCTTA)”, 0; in that of “GCCACCCCATGGACCGGTTTTCCCGGTAATCCGTATTTGTA (site GCCACGCCTTA)”, 0. In the case of “GCCACCCCATGGACCGGTTTTCCCGGTAATCCGTATTTGTA (site GCCACTCCTTA)”, the “recombinant UMI read abundance (log10)” value is 0.0101. As for “GCCACCGCATGGACCGGTTTTCCCGGTAATCCGTATTTGCG (site ACCACCGCTCG)”, the figure is 0.439; as for “GCCACCGCATGGACCGGTTTTCCCGGTAATCCGTATTTGCG (site CCCACCGCTCG)”, 0.0179; as for “GCCACCGCATGGACCGGTTTTCCCGGTAATCCGTATTTGCG (site GCCACCGCTCG)”, 0.939. In the case of “GCCACCGCATGGACCGGTTTTCCCGGTAATCCGTATTTGCG (site TCCACCGCTCG)” it was 0.00586; in that of “GCCACGCCATGGACCGGTTTTCCCGGTAATCCGTATTTGTT (site GCCACGCCTAA)”, 0.0554. As to “GCCACGCCATGGACCGGTTTTCCCGGTAATCCGTATTTGTT (site GCCACGCCTCA)”, the “recombinant UMI read abundance (log10)” value was found to be 0.0173. For the sequence “GCCACGCCATGGACCGGTTTTCCCGGTAATCCGTATTTGTT (site GCCACGCCTGA)”, the “recombinant UMI read abundance (log10)” value was 0. For the sequence “GCCACGCCATGGACCGGTTTTCCCGGTAATCCGTATTTGTT (site GCCACGCCTTA)”, the “recombinant UMI read abundance (log10)” value stood at 0.00385. In the case of “GCCACGTCATGGACCGGTTTTCCCGGTAATCCGTATTTGTA (site GCCACGACTTA)” it was 0.0796; in that of “GCCACGTCATGGACCGGTTTTCCCGGTAATCCGTATTTGTA (site GCCACGCCTTA)”, 0.0201. In the case of “GCCACGTCATGGACCGGTTTTCCCGGTAATCCGTATTTGTA (site GCCACGGCTTA)” it was 0; in that of “GCCACGTCATGGACCGGTTTTCCCGGTAATCCGTATTTGTA (site GCCACGTCTTA)”, 2.47. For the sequence “GCCACTGCATGGACCGGTTTTCCCGGTAATCCGTATTTGCC (site GCAACTGCTGG)”, the “recombinant UMI read abundance (log10)” value stood at 1.19. In the case of “GCCACTGCATGGACCGGTTTTCCCGGTAATCCGTATTTGCC (site GCCACTGCTGG)”, the “recombinant UMI read abundance (log10)” value was 1.63. As for “GCCACTGCATGGACCGGTTTTCCCGGTAATCCGTATTTGCC (site GCGACTGCTGG)”, the figure is 0; as for “GCCACTGCATGGACCGGTTTTCCCGGTAATCCGTATTTGCC (site GCTACTGCTGG)”, 0; as for “GCCACTTCATGGACCGGTTTTCCCGGTAATCCGTATTTGTT (site GCCACTTCTAA)”, 0.855. Turning to “GCCAGACCATGGACCGGTTTTCCCGGTAATCCGTATTTGGA (site GCCAGACCTTC)”, the “recombinant UMI read abundance (log10)” value is 0.0205. With “GCCAGTCCATGGACCGGTTTTCCCGGTAATCCGTATTTGAT (site GCCAGTCCTAT)”, the “recombinant UMI read abundance (log10)” value worked out at 0.00932. Consider “GCCATACCATGGACCGGTTTTCCCGGTAATCCGTATTTGTG (site GCCATACCTCA)”, for which the “recombinant UMI read abundance (log10)” value came to 0.00697.

Turning to “GCCATGCCATGGACCGGTTTTCCCGGTAATCCGTATTTGTA (site GCCAAGCCTTA)”, the “recombinant UMI read abundance (log10)” value worked out at 0.00915.

These data come from the supplement of paper PMC11208160.
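Further: IS621 bridge recombinase in Escherichia coli cells against a fixed T5 target plasmid.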
